ChEMBL document CHEMBL1201862, “PubChem BioAssay data set” (2004)
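A five-concentration, 48-hour dose response in 96-well plates underlies each endpoint, interpolated linearly between surrounding concentrations. GI50 marks 50% less growth.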 Activity calls are given as the source filed them. Cut-off read from the data, not from the text of the source: active = GI50 up to about 1.1 µM and inactive = higher.

Key:
Test in all cases: DTP human tumour cell line panel, 48 h
KM12 = test system: KM12
SF-268 = test system: SF-268
HCC 2998 = test system: HCC 2998
UO-31 = test system: UO-31
BT-549 = test system: BT-549
NCI/ADR-RES = test system: NCI/ADR-RES
OVCAR-5 = test system: OVCAR-5
MDA-MB-435 = test system: MDA-MB-435
A549 = test system: A549
M14 = test system: M14
OVCAR-3 = test system: OVCAR-3
HL-60 = test system: HL-60
SK-MEL-28 = test system: SK-MEL-28
SW-620 = test system: SW-620
HOP-92 = test system: HOP-92
HOP-62 = test system: HOP-62
HT-29 = test system: HT-29
CCRF-CEM = test system: CCRF-CEM
TK-10 = test system: TK-10
EKVX = test system: EKVX
UACC-62 = test system: UACC-62
SK-OV-3 = test system: SK-OV-3
IGROV-1 = test system: IGROV-1
NCI-H522 = test system: NCI-H522
OVCAR-4 = test system: OVCAR-4
NCI-H460 = test system: NCI-H460
LOX IMVI = test system: LOX IMVI
Hs-578T = test system: Hs-578T
HCT-116 = test system: HCT-116
COLO 205 = test system: COLO 205
SK-MEL-2 = test system: SK-MEL-2
MOLT-4 = test system: MOLT-4
NCI-H23 = test system: NCI-H23
SNB-75 = test system: SNB-75
PC-3 = test system: PC-3
MDA-MB-231 = test system: MDA-MB-231
RXF 393 = test system: RXF 393
SF-539 = test system: SF-539
MDA-N = test system: MDA-N
786-0 = test system: 786-0
DU-145 = test system: DU-145
ACHN = test system: ACHN
UACC-257 = test system: UACC-257
NCI-H226 = test system: NCI-H226
SNB-19 = test system: SNB-19
HCT-15 = test system: HCT-15
MCF7 = test system: MCF7
SF-295 = test system: SF-295
U-251 = test system: U-251
OVCAR-8 = test system: OVCAR-8
CAKI-1 = test system: CAKI-1
SN12C = test system: SN12C
SK-MEL-5 = test system: SK-MEL-5
Malme-3M = test system: Malme-3M
A498 = test system: A498
K562 = test system: K562
SR = test system: SR
T47D = test system: T47D
RPMI-8226 = test system: RPMI-8226

## Cc1cc(Br)cc(C)c1NC(=O)C(=O)C1C(=O)C(CC2C(=O)c3ccccc3C2=O)C(=O)CC1(C)C (stereo not drawn)
KM12
  GI50: > 100 µM (inactive)
SF-268
  GI50: > 100 µM (inactive)
HCC 2998
  GI50: > 100 µM (inactive)
UO-31
  GI50: 16.8 µM (inactive)
BT-549
  GI50: > 100 µM (inactive)
NCI/ADR-RES
  GI50: 86.5 µM (inactive)
OVCAR-5
  GI50: > 100 µM (inactive)
MDA-MB-435
  GI50: > 100 µM (inactive)
A549
  GI50: 79.6 µM (inactive)
M14
  GI50: > 100 µM (inactive)
OVCAR-3
  GI50: > 100 µM (inactive)
HL-60
  GI50: 28.5 µM (inactive)
SK-MEL-28
  GI50: > 100 µM (inactive)
SW-620
  GI50: > 100 µM (inactive)
HOP-92
  GI50: 55.3 µM (inactive)
HOP-62
  GI50: > 100 µM (inactive)
HT-29
  GI50: > 100 µM (inactive)
CCRF-CEM
  GI50: 41.7 µM (inactive)
TK-10
  GI50: > 100 µM (inactive)
EKVX
  GI50: 50.8 µM (inactive)
UACC-62
  GI50: 90.2 µM (inactive)
SK-OV-3
  GI50: > 100 µM (inactive)
IGROV-1
  GI50: 29.9 µM (inactive)
NCI-H522
  GI50: 44.5 µM (inactive)
OVCAR-4
  GI50: 39.5 µM (inactive)
NCI-H460
  GI50: > 100 µM (inactive)
LOX IMVI
  GI50: > 100 µM (inactive)
Hs-578T
  GI50: > 100 µM (inactive)
HCT-116
  GI50: 83.2 µM (inactive)
COLO 205
  GI50: > 100 µM (inactive)
SK-MEL-2
  GI50: > 100 µM (inactive)
MOLT-4
  GI50: 18.1 µM (inactive)
NCI-H23
  GI50: 84.1 µM (inactive)
SNB-75
  GI50: > 100 µM (inactive)
PC-3
  GI50: 60.7 µM (inactive)
MDA-MB-231
  GI50: 55 µM (inactive)
RXF 393
  GI50: 3.66 µM (inactive)
SF-539
  GI50: > 100 µM (inactive)
MDA-N
  GI50: > 100 µM (inactive)
786-0
  GI50: > 100 µM (inactive)
DU-145
  GI50: > 100 µM (inactive)
ACHN
  GI50: > 100 µM (inactive)
UACC-257
  GI50: > 100 µM (inactive)
NCI-H226
  GI50: 67.5 µM (inactive)
SNB-19
  GI50: > 100 µM (inactive)
HCT-15
  GI50: 63.5 µM
MCF7
  GI50: 18.6 µM (inactive)
SF-295
  GI50: > 100 µM (inactive)
U-251
  GI50: > 100 µM (inactive)
OVCAR-8
  GI50: > 100 µM (inactive)
CAKI-1
  GI50: > 100 µM (inactive)
SN12C
  GI50: > 100 µM (inactive)
SK-MEL-5
  GI50: > 100 µM (inactive)

## COc1cc2cnc(-c3ccccc3)cc2cc1OC
KM12
  GI50: 26.9 µM (inactive)
SF-268
  GI50: 35.7 µM (inactive)
UO-31
  GI50: 29.5 µM (inactive)
BT-549
  GI50: 23.2 µM (inactive)
NCI/ADR-RES
  GI50: 26 µM (inactive)
OVCAR-5
  GI50: 33.2 µM (inactive)
Malme-3M
  GI50: 27.9 µM (inactive)
MDA-MB-435
  GI50: 26.9 µM (inactive)
A549
  GI50: 28.5 µM (inactive)
M14
  GI50: 30.7 µM (inactive)
OVCAR-3
  GI50: 24.3 µM (inactive)
HL-60
  GI50: 20.3 µM (inactive)
SK-MEL-28
  GI50: 33.5 µM (inactive)
SW-620
  GI50: 32.4 µM (inactive)
HOP-92
  GI50: 17.5 µM (inactive)
HOP-62
  GI50: 56.1 µM (inactive)
A498
  GI50: 0.252 µM (active)
HT-29
  GI50: 24.9 µM (inactive)
TK-10
  GI50: 25.7 µM (inactive)
EKVX
  GI50: 3.22 µM (inactive)
UACC-62
  GI50: 10 µM (inactive)
SK-OV-3
  GI50: 39.7 µM (inactive)
IGROV-1
  GI50: 19.1 µM (inactive)
NCI-H522
  GI50: 20 µM (inactive)
OVCAR-4
  GI50: 24.3 µM (inactive)
K562
  GI50: 30.1 µM (inactive)
NCI-H460
  GI50: 32.2 µM (inactive)
Hs-578T
  GI50: 12.8 µM (inactive)
HCT-116
  GI50: 45.6 µM (inactive)
COLO 205
  GI50: 20.9 µM (inactive)
SK-MEL-2
  GI50: 23 µM (inactive)
SR
  GI50: 16.8 µM (inactive)
MOLT-4
  GI50: 20 µM (inactive)
NCI-H23
  GI50: 20.9 µM (inactive)
T47D
  GI50: 26.7 µM (inactive)
SNB-75
  GI50: 41.1 µM (inactive)
PC-3
  GI50: 23 µM (inactive)
MDA-MB-231
  GI50: 19.1 µM (inactive)
RXF 393
  GI50: 37.2 µM (inactive)
SF-539
  GI50: 31.1 µM (inactive)
786-0
  GI50: 36.4 µM (inactive)
DU-145
  GI50: 37.3 µM (inactive)
ACHN
  GI50: 23.3 µM (inactive)
UACC-257
  GI50: 22.8 µM (inactive)
NCI-H226
  GI50: 17.7 µM (inactive)
SNB-19
  GI50: 24.9 µM (inactive)
HCT-15
  GI50: 19 µM
MCF7
  GI50: 18.5 µM (inactive)
SF-295
  GI50: 19.5 µM (inactive)
U-251
  GI50: 19.8 µM (inactive)
OVCAR-8
  GI50: 26.5 µM (inactive)
RPMI-8226
  GI50: 15.9 µM (inactive)
CAKI-1
  GI50: 20.7 µM (inactive)
SN12C
  GI50: 3.5 µM (inactive)
SK-MEL-5
  GI50: 11.8 µM (inactive)
